Laboratory results published in patent US8962641B2, “Pyrimidine-substituted pyrrolidine derivatives, pharmaceutical compositions and uses thereof” (Boehringer Ingelheim International GmbH, priority 2013, dated 2015).
Where two headings read alike, the source gives them in different places.

Target: human ACC2 (Homo sapiens (Human), UniProt O00763)
Assay: ACC2 assay (spectrophotometric 384 well assay, NADH-linked kinetic method)
Assay type: biochemical
Protocol: Spectrophotometric 384 Well Assay
Malonyl CoA formation by acetyl CoA carboxylases is stoichometrically linked to the consumption of ATP. ACC2 activity is measured in a NADH-linked kinetic method measuring ADP generated during the ACC reaction using a coupled lactate dehydrogenase/pyruvate kinase reaction.
The protein is then expressed in insect cells using a baculoviral expression system. Protein purification is performed by anion exchange.
All compounds are dissolved in dimethyl sulfoxide (DMSO) to a concentration of 10 mM.
The enzymatic reaction is then started by addition of a mixture of NADH, acetyl Coenzyme A (both 200 μM f.c.) and ATP (500 uM f.c.). The decrease of the optical density (slope S) is then determined at 25° C. at a wavelength of 340 nm over 15 minutes in a spectrophotometric reader.
Each assay microtiter plate contains wells with vehicle instead of compound as controls for the non-inhibited enzyme (100% CTL; ‘HIGH’) and wells without acetyl-CoA as controls for non-specific NADH degradation (0% CTL; ‘LOW’).

[1] = hACC2 construct lacking 128 N-terminal amino acids, coupled lactate dehydrogenase/pyruvate kinase reaction, 340 nm, 25° C.

Sequence of human ACC2 (O00763 129-2458): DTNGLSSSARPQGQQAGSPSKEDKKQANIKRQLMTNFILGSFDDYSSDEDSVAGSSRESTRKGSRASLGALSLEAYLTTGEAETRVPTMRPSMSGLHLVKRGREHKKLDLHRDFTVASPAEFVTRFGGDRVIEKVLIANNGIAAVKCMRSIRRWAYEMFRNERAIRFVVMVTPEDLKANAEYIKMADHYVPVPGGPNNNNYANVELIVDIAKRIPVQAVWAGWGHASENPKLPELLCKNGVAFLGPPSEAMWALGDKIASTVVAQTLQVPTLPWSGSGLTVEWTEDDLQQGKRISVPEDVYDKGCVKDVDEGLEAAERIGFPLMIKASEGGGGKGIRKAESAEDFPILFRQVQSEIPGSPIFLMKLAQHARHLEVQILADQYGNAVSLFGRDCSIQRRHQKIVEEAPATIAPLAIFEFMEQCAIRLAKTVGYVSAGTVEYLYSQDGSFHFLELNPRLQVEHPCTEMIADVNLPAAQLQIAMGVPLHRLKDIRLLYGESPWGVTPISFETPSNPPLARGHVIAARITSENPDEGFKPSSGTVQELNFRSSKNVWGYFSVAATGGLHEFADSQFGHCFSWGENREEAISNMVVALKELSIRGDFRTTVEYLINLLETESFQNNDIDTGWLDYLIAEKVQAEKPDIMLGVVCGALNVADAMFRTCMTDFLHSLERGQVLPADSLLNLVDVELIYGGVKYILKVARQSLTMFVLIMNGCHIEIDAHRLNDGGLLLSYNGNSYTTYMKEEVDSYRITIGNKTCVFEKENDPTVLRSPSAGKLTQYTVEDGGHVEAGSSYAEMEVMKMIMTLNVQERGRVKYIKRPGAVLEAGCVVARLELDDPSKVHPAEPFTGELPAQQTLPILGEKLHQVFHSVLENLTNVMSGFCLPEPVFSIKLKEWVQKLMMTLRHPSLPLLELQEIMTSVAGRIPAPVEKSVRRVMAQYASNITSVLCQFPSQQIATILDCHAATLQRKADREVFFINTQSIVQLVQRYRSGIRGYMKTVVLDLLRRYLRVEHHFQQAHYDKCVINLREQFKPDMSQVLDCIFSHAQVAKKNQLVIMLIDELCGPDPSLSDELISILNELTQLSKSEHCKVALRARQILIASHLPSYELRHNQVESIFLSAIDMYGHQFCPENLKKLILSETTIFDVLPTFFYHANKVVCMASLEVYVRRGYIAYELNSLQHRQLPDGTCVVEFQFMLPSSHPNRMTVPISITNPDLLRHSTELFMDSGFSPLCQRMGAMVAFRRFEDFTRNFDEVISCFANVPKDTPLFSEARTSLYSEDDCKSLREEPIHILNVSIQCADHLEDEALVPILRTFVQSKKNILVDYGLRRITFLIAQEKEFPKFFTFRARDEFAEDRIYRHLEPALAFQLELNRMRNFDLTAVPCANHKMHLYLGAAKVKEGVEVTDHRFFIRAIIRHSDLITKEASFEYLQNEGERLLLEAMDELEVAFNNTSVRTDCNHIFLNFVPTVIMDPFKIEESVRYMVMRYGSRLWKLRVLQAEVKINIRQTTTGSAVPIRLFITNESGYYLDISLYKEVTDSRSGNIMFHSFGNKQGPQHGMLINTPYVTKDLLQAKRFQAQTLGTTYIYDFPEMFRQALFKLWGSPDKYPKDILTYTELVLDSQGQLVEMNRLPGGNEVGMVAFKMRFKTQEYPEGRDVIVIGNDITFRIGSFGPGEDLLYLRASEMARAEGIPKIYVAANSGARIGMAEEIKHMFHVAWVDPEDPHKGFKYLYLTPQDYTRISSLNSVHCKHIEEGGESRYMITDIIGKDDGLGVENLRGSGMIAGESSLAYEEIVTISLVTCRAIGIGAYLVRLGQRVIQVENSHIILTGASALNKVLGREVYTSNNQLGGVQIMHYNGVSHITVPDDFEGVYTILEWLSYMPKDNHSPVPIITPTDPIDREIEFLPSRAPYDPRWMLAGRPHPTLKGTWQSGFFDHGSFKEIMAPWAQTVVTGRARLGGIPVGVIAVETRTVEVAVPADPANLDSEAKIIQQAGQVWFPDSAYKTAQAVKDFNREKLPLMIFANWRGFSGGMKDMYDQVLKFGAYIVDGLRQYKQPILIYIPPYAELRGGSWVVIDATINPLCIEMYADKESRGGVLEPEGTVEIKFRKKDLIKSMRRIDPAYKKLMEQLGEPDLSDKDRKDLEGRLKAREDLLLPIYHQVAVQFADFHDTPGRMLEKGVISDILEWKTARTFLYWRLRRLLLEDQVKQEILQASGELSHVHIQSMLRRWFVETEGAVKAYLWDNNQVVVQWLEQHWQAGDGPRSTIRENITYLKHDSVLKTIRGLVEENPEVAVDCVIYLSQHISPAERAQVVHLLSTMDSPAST

| Compound | IC50 [1] | IC50 |
| --- | --- | --- |
| CC(=O)N[C@@H](C)c1ccc(O[C@@H]2CCN(c3cnc(NC4CCC4)nc3)C2)cc1 [Example 1.1, N—((S)-1-(4-((R)-1-(2-(cyclobutylamino)pyrimidin-5-yl)pyrrolidin-3-yloxy)phenyl)ethyl)acetamide] | 489 nM |  |
| CC(=O)N[C@@H](C)c1ccc(OC2CCN(c3cnc(OC4CCC4)nc3)C2)cc1 (stereo partly drawn) [Example 1.2] | 565 nM |  |
| CC(=O)N[C@@H](C)c1ccc(OC2CCN(c3cnc(OCC4CC4)nc3)C2)cc1 (stereo partly drawn) [Example 1.3] | 964 nM |  |
| CCC(=O)Nc1nc(C)c(C(=O)N[C@@H](C)c2ccc(O[C@@H]3CCN(c4ncc(OCC5CC5(F)F)cn4)C3)cc2)s1 (stereo partly drawn) [Example 1.4] | 101 nM |  |
| C[C@H](NC(=O)C1CC1)c1ccc(O[C@@H]2CCN(c3ccnc(N(C)CC(F)F)n3)C2)cc1 [Example 2.1, N—((S)-1-(4-((R)-1-(2-((2,2-difluoroethyl)(methyl)amino)pyrimidin-4-yl)pyrrolidin-3-yloxy)phenyl)ethyl)cyclopropanecarboxamide] |  | 65 nM |
| C[C@H](NC(=O)C1CC1)c1ccc(OC2CCN(c3ccnc(N4CCOCC4)n3)C2)cc1 (stereo partly drawn) [Example 2.2] | 359 nM |  |
| CC(=O)Nc1nc(C)c(C(=O)N[C@@H](C)c2ccc(OC3CCN(c4ccnc(N5CCOCC5)n4)C3)cc2)s1 (stereo partly drawn) [Example 2.3] | 547 nM |  |
| Cc1nocc1C(=O)N[C@@H](C)c1ccc(OC2CCN(c3ccnc(N4CCOCC4)n3)C2)cc1 (stereo partly drawn) [Example 2.4] | 208 nM |  |
| C[C@H](NC(=O)c1ccns1)c1ccc(OC2CCN(c3ccnc(N4CCOCC4)n3)C2)cc1 (stereo partly drawn) [Example 2.5] | 535 nM |  |
| C[C@H](NC(=O)c1cnco1)c1ccc(OC2CCN(c3ccnc(N4CCOCC4)n3)C2)cc1 (stereo partly drawn) [Example 2.6] | 320 nM |  |
| C[C@H](NC(=O)c1cn[nH]c1)c1ccc(OC2CCN(c3ccnc(N4CCOCC4)n3)C2)cc1 (stereo partly drawn) [Example 2.7] | 455 nM |  |
| CCN(C)c1nccc(N2CCC(Oc3ccc([C@H](C)NC(=O)c4sc(NC(C)=O)nc4C)cc3)C2)n1 (stereo partly drawn) [Example 2.8] | 245 nM |  |
| CCN(C)c1nccc(N2CCC(Oc3ccc([C@H](C)NC(=O)c4sc(NC(=O)COC)nc4C)cc3)C2)n1 (stereo partly drawn) [Example 2.9] | 300 nM |  |
| CC(=O)Nc1nc(C)c(C(=O)N[C@@H](C)c2ccc(OC3CCN(c4ccnc(N(C)CC(F)F)n4)C3)cc2)s1 (stereo partly drawn) [Example 2.10] | 115 nM |  |
| COCC(=O)Nc1nc(C)c(C(=O)N[C@@H](C)c2ccc(OC3CCN(c4ccnc(N(C)CC(F)F)n4)C3)cc2)s1 (stereo partly drawn) [Example 2.11] | 115 nM |  |
| Cc1oncc1C(=O)N[C@@H](C)c1ccc(OC2CCN(c3ccnc(N(C)CC(F)F)n3)C2)cc1 (stereo partly drawn) [Example 2.12] | 90 nM |  |
| CCC(=O)N[C@@H](C)c1ccc(OC2CCN(c3ccnc(N(C)CC)n3)C2)cc1 (stereo partly drawn) [Example 2.13] | 85 nM |  |
| CCN(C)c1nccc(N2CCC(Oc3ccc([C@H](C)NC(=O)C4CC4)cc3)C2)n1 (stereo partly drawn) [Example 2.14] | 63 nM |  |
| C[C@H](NC(=O)c1cn[nH]c1)c1ccc(OC2CCN(c3ccnc(N(C)CC(F)F)n3)C2)cc1 (stereo partly drawn) [Example 2.15] | 70 nM |  |
| CCC(=O)N[C@@H](C)c1ccc(OC2CCN(c3ccnc(N(C)CC(F)F)n3)C2)cc1 (stereo partly drawn) [Example 2.16] | 45 nM |  |
| CCN(C)c1nccc(N2CCC(Oc3ccc([C@H](C)NC(=O)c4cn[nH]c4)cc3)C2)n1 (stereo partly drawn) [Example 2.17] | 118 nM |  |

| Compound | IC50 [1] | IC50 |
| --- | --- | --- |
| CCN(C)c1nccc(N2CCC(Oc3ccc([C@H](C)NC(=O)c4cnoc4C)cc3)C2)n1 (stereo partly drawn) [Example 2.18] | 130 nM |  |
| CC(=O)Nc1nc(C)c(C(=O)N[C@@H](C)c2ccc(OC3CCN(c4ncnc(OCC5CC5)c4F)C3)cc2)s1 (stereo partly drawn) [Example 2.19] | 39 nM |  |
| C[C@H](NC(=O)c1cn[nH]c1)c1ccc(OC2CCN(c3ncnc(OCC4CC4)c3F)C2)cc1 (stereo partly drawn) [Example 2.20] | 53 nM |  |
| C[C@H](NC(=O)c1cnco1)c1ccc(OC2CCN(c3ncnc(OCC4CC4)c3F)C2)cc1 (stereo partly drawn) [Example 2.21] | 87 nM |  |
| Cc1oncc1C(=O)N[C@@H](C)c1ccc(OC2CCN(c3ncnc(OCC4CC4)c3F)C2)cc1 (stereo partly drawn) [Example 2.22] | 48 nM |  |
| CCC(=O)N[C@@H](C)c1ccc(OC2CCN(c3ncnc(OCC4CC4)c3F)C2)cc1 (stereo partly drawn) [Example 2.23] | 144 nM |  |
| COc1c(OCC2CC2)ncnc1N1CC[C@@H](Oc2ccc([C@H](C)NC(=O)c3cnco3)cc2)C1 [Example 2.27] | 103 nM |  |
| COc1c(OCC2CC2)ncnc1N1CC[C@@H](Oc2ccc([C@H](C)NC(=O)C3(C)CC3)cc2)C1 [Example 2.29] | 204 nM |  |
| COc1c(OCC2CC2)ncnc1N1CC[C@@H](Oc2ccc([C@H](C)NC(=O)C3CC(F)C3)cc2)C1 (stereo partly drawn) [Example 2.30] | 528 nM |  |
| COc1c(OCC2CC2)ncnc1N1CC[C@@H](Oc2ccc([C@H](C)NC(=O)c3oc(NC(C)=O)nc3C)cc2)C1 [Example 2.32] | 809 nM |  |
| COc1c(OCC2CC2)ncnc1N1CC[C@@H](Oc2ccc([C@H](C)NC(=O)c3coc(NC(C)=O)n3)cc2)C1 [Example 2.33] | 908 nM |  |
| C[C@H](NC(=O)N(C)C)c1ccc(OC2CCN(c3ccnc(N(C)CC(F)F)n3)C2)cc1 (stereo partly drawn) [Example 3.1] | 40 nM |  |
| C[C@H](NC(=O)N(C)C)c1ccc(OC2CCN(c3ccnc(N4CCOCC4)n3)C2)cc1 (stereo partly drawn) [Example 3.2] | 227 nM |  |
| CCNC(=O)N[C@@H](C)c1ccc(OC2CCN(c3ccnc(N4CCOCC4)n3)C2)cc1 (stereo partly drawn) [Example 3.3] | 445 nM |  |
| C[C@H](NC(=O)N1CCC1)c1ccc(OC2CCN(c3ccnc(N4CCOCC4)n3)C2)cc1 (stereo partly drawn) [Example 3.4] | 1040 nM |  |
| C[C@H](NC(=O)Nc1ccon1)c1ccc(OC2CCN(c3ccnc(N4CCOCC4)n3)C2)cc1 (stereo partly drawn) [Example 3.5] | 299 nM |  |
| C[C@H](NC(=O)N1CCOCC1)c1ccc(OC2CCN(c3ccnc(N4CCOCC4)n3)C2)cc1 (stereo partly drawn) [Example 3.6] | 605 nM |  |
| CCN(C)C(=O)N[C@@H](C)c1ccc(OC2CCN(c3ccnc(N4CCOCC4)n3)C2)cc1 (stereo partly drawn) [Example 3.7] | 374 nM |  |
| CNC(=O)N[C@@H](C)c1ccc(OC2CCN(c3ccnc(N4CCOCC4)n3)C2)cc1 (stereo partly drawn) [Example 3.8] | 260 nM |  |
| CCN(C)c1nccc(N2CCC(Oc3ccc([C@H](C)NC(=O)N(C)C)cc3)C2)n1 (stereo partly drawn) [Example 3.9] | 117 nM |  |
| C[C@H](NC(=O)N(C)C)c1ccc(OC2CCN(c3ncnc(OCC4CC4)c3F)C2)cc1 (stereo partly drawn) [Example 3.10] | 45 nM |  |

| Compound | IC50 [1] | IC50 |
| --- | --- | --- |
| CNC(=O)N[C@@H](C)c1ccc(OC2CCN(c3ncnc(OCC4CC4)c3F)C2)cc1 (stereo partly drawn) [Example 3.11] | 110 nM |  |
| C[C@H](NC(=O)N1CCOCC1)c1ccc(OC2CCN(c3ncnc(OCC4CC4)c3F)C2)cc1 (stereo partly drawn) [Example 3.12] | 203 nM |  |
| C[C@H](NC(=O)Nc1ccon1)c1ccc(OC2CCN(c3ncnc(OCC4CC4)c3F)C2)cc1 (stereo partly drawn) [Example 3.13] | 50 nM |  |
| CCNC(=O)N[C@@H](C)c1ccc(OC2CCN(c3ncnc(OCC4CC4)c3F)C2)cc1 (stereo partly drawn) [Example 3.14] | 120 nM |  |
| C[C@H](NC(=O)N(C)C)c1ccc(OC2CCN(c3ncnc(OCC(C)(C)O)c3F)C2)cc1 (stereo partly drawn) [Example 3.15] | 278 nM |  |
| C[C@H](NC(=O)N(C)C)c1ccc(O[C@H]2CCN(c3nc(N4CCC5(CC5)C4)ncc3F)C2)cc1 [Example 3.16] | 104 nM |  |
| CCNC(=O)N[C@@H](C)c1ccc(O[C@@H]2CCN(c3nc(N4CCC5(CC5)C4)ncc3F)C2)cc1 [Example 3.17] | 242 nM |  |
| C[C@H](NC(=O)N(C)C)c1ccc(O[C@H]2CCN(c3nc(N4CCOCC4)ncc3F)C2)cc1 [Example 3.18] | 113 nM |  |
| C[C@H](NC(=O)N(C)C)c1ccc(O[C@@H]2CCN(c3ncnc(OCC(C)(F)F)c3F)C2)cc1 [Example 3.19] | 155 nM |  |
| CCNC(=O)N[C@@H](C)c1ccc(O[C@@H]2CCN(c3nc(N4CCOCC4)ncc3F)C2)cc1 [Example 3.20] | 576 nM |  |
| COC(=O)N[C@@H](C)c1ccc(O[C@@H]2CCN(c3ccnc(N(C)CC(F)F)n3)C2)cc1 [Example 4.1, Methyl (S)-1-(4-((R)-1-(2-((2,2-difluoroethyl)(methyl)amino)pyrimidin-4-yl)pyrrolidin-3-yloxy)phenyl)ethylcarbamate] | 65 nM |  |
| COC(=O)N[C@@H](C)c1ccc(OC2CCN(c3ccnc(N4CCOCC4)n3)C2)cc1 (stereo partly drawn) [Example 4.2] | 244 nM |  |
| CCOC(=O)N[C@@H](C)c1ccc(OC2CCN(c3ccnc(N4CCOCC4)n3)C2)cc1 (stereo partly drawn) [Example 4.3] | 494 nM |  |
| CCN(C)c1nccc(N2CCC(Oc3ccc([C@H](C)NC(=O)OC)cc3)C2)n1 (stereo partly drawn) [Example 4.4] | 75 nM |  |
| COC(=O)N[C@@H](C)c1ccc(OC2CCN(c3ncnc(OCC4CC4)c3F)C2)cc1 (stereo partly drawn) [Example 4.5] | 85 nM |  |
| COC(=O)N[C@@H](C)c1ccc(OC2CCN(c3ncnc(OCC(C)(C)O)c3F)C2)cc1 (stereo partly drawn) [Example 4.6] | 222 nM |  |
| CCN(C)c1nccc(N2CC[C@@H](Oc3ccc([C@H](C)NC(=O)C(F)F)cc3)C2)n1 [Example 5.1, N—((S)-1-(4-((R)-1-(2-(ethyl(methyl)amino)pyrimidin-4-yl)pyrrolidin-3-yloxy)phenyl)ethyl)-2,2-difluoroacetamide] | 59 nM |  |
| C[C@H](NC(=O)C(F)F)c1ccc(OC2CCN(c3ccnc(N(C)CC(F)F)n3)C2)cc1 (stereo partly drawn) [Example 5.2] | 49 nM |  |
| C[C@H](NC(=O)C(F)F)c1ccc(OC2CCN(c3ncnc(OCC4CC4)c3F)C2)cc1 (stereo partly drawn) [Example 5.3] | 65 nM |  |
| CC(=O)N[C@@H](C)c1ccc(O[C@@H]2CCN(c3ncc(OCC4CCC4)cn3)C2)cc1 [Example 6.1, N—((S)-1-(4-((R)-1-(5-(cyclobutylmethoxy)pyrimidin-2-yl)pyrrolidin-3-yloxy)phenyl)ethyl)acetamide] | 110 nM |  |
| CC(=O)N[C@@H](C)c1ccc(O[C@@H]2CCN(c3ncc(C4CC4)cn3)C2)cc1 [Example 6.4] | 1910 nM |  |
